Results published in patent US5140040A, “1-aminomethyl-1,2,3,4-tetrahydronaphthalenes” (Abbott Laboratories, priority 1991, dated 1992).
Structures can show the parent of a compound that is named as a salt.

Biological target: alpha-2-receptor
Assay: Radioligand binding, alpha-2 adrenoceptor, rat cerebral cortices, [^3 H]-rauwolscine
Conditions: for Ki: rat cerebral cortices, [^3 H]-rauwolscine; for alpha-2 - Selectivity Ki alpha-1/Ki alpha 2: ratio of Ki alpha-1 to Ki alpha-2
Description: The compounds were assessed for alpha-adrenergic receptor subtype selectivity by use of radioligand binding techniques as described previously (DeBernardis et.al. J. Med. Chem. 28, 1398 (1985)).

| SMILES | Ki | alpha-2 - Selectivity Ki alpha-1/Ki alpha 2 |
| --- | --- | --- |
| CN(CCc1cccs1)CC1CCCc2c(Cl)cccc21 (stereo not drawn) [Example 129, 1-((N-Methylamino)methyl-N-(2-(2-thieny)ethyl))-5-chloro tetralin hydrochloride] | 3.6 nM | 55 |
| COc1cc2c(cc1F)C(CN(C)CCc1ccco1)CCC2 (stereo not drawn) [Example 141, 1-((N-methylamino)methyl-N-(2-(2-furyl)ethyl))-6-methoxy-7-fluoro tetralin methanesulfonate] | 4.8 nM | 183 |
| c1csc(C2CCN(CC3CCCc4c3ccc3c4OCO3)C2)c1 (stereo not drawn) [Example 144, 5,6-Methylenedioxy-1-(3-(2-thienyl)pyrrolidino-1-methyl) tetralin methanesulfonate] | 1.2 nM | 204 |
| COc1cccc2c1CCCC2CN1CCC(c2cccs2)C1 (stereo not drawn) [Example 146, 5-Methoxy1-(3-(2-thienyl)pyrrolidino-1-methyl) tetralin hydrochloride] | 4.9 nM | 35 |
| Fc1ccc2c(c1)CCCC2CN1CCC(c2ccccc2)C1 (stereo not drawn) [Example 148, 6-Fluoro-1-(3-phenylpyrrolidino-1-methyl) tetralin methanesulfonate] | 6.5 nM | 19 |
| COc1ccc2c(c1)CCC2CN1CCC(c2cccs2)C1 (stereo not drawn) [Example 151, 5-Methoxy1-(3-(2-thienyl)pyrrolidino-1-methyl) indane hydrochloride] | 2.5 nM | 71 |
| COc1ccc2c(c1)CCC2CN1CCC(c2cccc(F)c2)C1 (stereo not drawn) [Example 153, 5-Methoxy-1-(3-(m-fluorophenyl)pyrrolidino-1-methyl) indane hydrochloride] | 8.6 nM | 7 |
| Nc1ccc2c(c1)CCCC2CN1CCC(c2ccccc2)C1 (stereo not drawn) [Example 156, 6-Amino-1-(3-phenylpyrrolidino-1-methyl) tetralin dihydrochloride] | 6 nM | 21 |
| CCN(CCc1cccs1)CC1CCCc2c1ccc1c2OCO1 (stereo not drawn) [Example 164, 1-(N-Ethylamino)methyl-N-(2-(2-thienyl)ethyl))-5,6-methylenedioxy tetralin hydrochloride] | 3.7 nM | 258 |
| CN(CCc1cccc(F)c1)CC1CCCc2c1ccc1c2OCCO1 (stereo not drawn) [Example 167, 1-((N-Methylamino)methyl N-(2-m-fluorophenethyl))-5,6-ethylenedioxy tetralin methanesulfonate] | 4.2 nM | 85 |
| CCN(CCc1cccs1)CC1CCCc2c1ccc1c2OCCO1 (stereo not drawn) [Example 168, 1-((N-Ethylamino)methyl N-(2-(2-thienyl)ethyl))-5,6-ethylenedioxy tetralin hydrochloride] | 6.6 nM | 125 |
| CN(c1ccc2c(c1)CCCC2CN1CCC(c2ccccc2)C1)S(C)(=O)=O (stereo not drawn) [Example 193, 6-(N-methylmethylsulfonamido)-1-(3-(phenylpyrrolidino-1-methyl)tetralin hydrochloride] | 1.3 nM | 93 |
